{
  "source": "patent US20180344715A1",
  "about": "“WNT/BETA-CATENIN SIGNAL TRANSDUCTION INHIBITORS AND THEIR USE IN TREATMENT OR PREVENTION OF DISEASES AND CONDITIONS LINKED WITH SAID TRANSDUCTION” (BERGEN TEKNOLOGIOVERFORING AS, priority 2015, published 2018)",
  "key": {"[1]": {"system": "β-catenin", "test": "In vivo ubiquitination assay in SW480 cells", "assay_type": "cell-based", "settings": "SW480, with proteasome inhibitor MG132, 6 hours", "procedure": "Cells were harvested and re-suspended with 100 μl ice cold TBS (50 mM Tris-HCL pH 8.0, 150 mM NaCl) containing 2 μM N-Ethylmaleimide crystalline that was supplemented to all the following buffers. After adding 120 μl TBS containing 2% SDS and mixing quickly, cells were heated at 98° C. for 10 minutes and placed immediately on ice for 5 minutes. Cell lysates were incubated with 1.8 ml TBS containing 1% Triton X-100 and 3 μg antibody (β-catenin ab22656, clone 12F7, Abcam; SHPRH, ab80129, Abcam), at 4° C. overnight followed by incubation with 100 μl Protein G beads (Life technologies, 10004D) at 4° C. for 1 hour on rotator. Beads were collected with Magnet and serially washed once with 1 ml TBS containing 1% Triton X-100/0.1% SDS, twice with 1 ml TBS containing 0.5M LiCl and once with 1 ml TBS containing 1% Triton X-100. Following addition of 80 μl 2% SDS sample buffer containing 10 mM DTT (Sigma, D9779), the beads were boiled at 98° C. for 5 minutes and collected with Magnet, the supernatant was analyzed by Western blotting."}, "[2]": {"target": "T1, MED23 and β-catenin (Homo sapiens, UniProt Q9ULK4)", "T1 construct": "endogenous in cells; host or cells: SW480", "T1 sequence (Q9ULK4 1-1368)": "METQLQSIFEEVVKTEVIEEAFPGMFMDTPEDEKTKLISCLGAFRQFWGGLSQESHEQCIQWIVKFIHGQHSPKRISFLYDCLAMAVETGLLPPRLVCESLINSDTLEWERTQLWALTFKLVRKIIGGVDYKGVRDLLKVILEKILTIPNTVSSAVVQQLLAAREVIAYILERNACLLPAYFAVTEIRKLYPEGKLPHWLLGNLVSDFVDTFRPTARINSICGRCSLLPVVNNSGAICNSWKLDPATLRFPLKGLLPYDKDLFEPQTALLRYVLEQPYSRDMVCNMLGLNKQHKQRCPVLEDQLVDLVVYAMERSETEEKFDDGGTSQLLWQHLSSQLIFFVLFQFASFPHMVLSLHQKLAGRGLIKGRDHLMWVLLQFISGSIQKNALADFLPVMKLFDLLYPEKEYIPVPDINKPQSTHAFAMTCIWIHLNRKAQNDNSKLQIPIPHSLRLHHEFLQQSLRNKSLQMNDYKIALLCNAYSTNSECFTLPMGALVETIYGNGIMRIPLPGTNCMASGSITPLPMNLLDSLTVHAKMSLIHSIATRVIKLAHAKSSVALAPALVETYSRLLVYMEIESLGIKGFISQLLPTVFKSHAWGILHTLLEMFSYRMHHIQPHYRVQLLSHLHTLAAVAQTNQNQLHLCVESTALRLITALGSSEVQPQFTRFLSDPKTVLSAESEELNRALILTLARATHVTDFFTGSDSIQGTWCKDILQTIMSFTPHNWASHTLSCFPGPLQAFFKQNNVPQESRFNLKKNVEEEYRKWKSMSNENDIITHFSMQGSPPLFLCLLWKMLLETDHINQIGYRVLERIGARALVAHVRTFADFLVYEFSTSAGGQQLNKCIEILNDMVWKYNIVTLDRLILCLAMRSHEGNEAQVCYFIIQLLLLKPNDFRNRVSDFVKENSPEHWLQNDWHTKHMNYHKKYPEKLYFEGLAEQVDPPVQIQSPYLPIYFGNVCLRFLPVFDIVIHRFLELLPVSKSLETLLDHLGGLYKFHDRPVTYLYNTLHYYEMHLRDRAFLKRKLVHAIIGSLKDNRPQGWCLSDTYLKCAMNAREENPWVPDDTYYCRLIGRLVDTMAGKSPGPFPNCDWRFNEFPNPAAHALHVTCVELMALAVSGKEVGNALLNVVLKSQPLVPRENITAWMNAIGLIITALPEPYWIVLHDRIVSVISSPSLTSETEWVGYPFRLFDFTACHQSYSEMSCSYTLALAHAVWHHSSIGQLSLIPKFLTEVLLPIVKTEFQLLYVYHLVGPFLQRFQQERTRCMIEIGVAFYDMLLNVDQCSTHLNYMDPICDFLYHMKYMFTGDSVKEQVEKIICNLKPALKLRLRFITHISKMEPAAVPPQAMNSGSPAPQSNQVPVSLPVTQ", "test": "Co-immunoprecipitation of MED23 and β-catenin", "assay_type": "cell-based", "settings": "SW480, 5 μM, 4 hours", "procedure": "Co-IP was done following the protocol of Dynabeads Co-Immunoprecipitation Kit (Life Technologies, 14321D). […] After saving 2% samples for input control, cell lysates were equally divided between 3 tubes, incubated with 3 mg Dynabeads and 21 μg mouse IgG (15381, Sigma), primary antibody against MED23 (BD550429, clone D27-1805, BD Biosciences) and β-catenin (ab22656, clone 12F7, Abcam), respectively. Input controls and proteins pulled down with individual antibodies were examined by Western blotting."}, "[3]": {"system": "HCT116 cells", "test": "Soft agar colony-formation assay, HCT116", "assay_type": "cell-based", "settings": "10 days", "procedure": "The soft agar colony-formation assay was performed using the CellTransformation Assays kit (catalog no. CBA-130; Cell Biolabs, Inc.) according to the recommended protocol. […] Medium containing drugs was replaced every 3 d. For the clonogenic assay, positively transfected cells (wild-type and mutant GFP-SHPRH and control GFP) were enriched by FACS and were seeded in six-well plates at a density of 3,000 cells per well. Medium was changed every 3 d. On the last day colony growth was quantified by crystal violet staining and measurement of OD at 590 nm."}, "[4]": {"system": "β-catenin", "test": "Immunofluorescence staining of β-catenin in SW480 cells", "assay_type": "cell-based", "settings": "SW480, 5 μM, 24 hours", "experimental": "Cells were seeded singly on 12 mm glass coverslips in 24-well plates. At the second day, cells were washed with PBS, fixed in 4% PBS buffered paraformaldehyde at room temperature for 20 minutes, permeabilized in 0.5% Triton X-100 for 10 minutes, blocked in 100 mM glycine for 5 minutes and with PBS wash between each step. After blocking with 0.5% BSA/PBS for 15 minutes, cells were incubated with primary antibodies (β-catenin, ab16051, 1:1000, Abcam; Ki67, ab16667, clone SP6, 1:50, Abcam) in 0.5% BSA/PBS for 1 hour at room temperature. The FITC-labelled secondary antibody (Southern Biotech, 4050-02) was added for 45 minutes at room temperature. Coverslips were mounted in SlowFade® Diamond Antifade Mountant with DAPI (Life Technologies, S36964) on glass slides. Images were captured using the Qcapture Suite software with a Qimaging Exi Blue camera attached to a Leica DMRBE microscope."}, "[5]": {"system": "Apc (VilCre^ER Apc^fl/fl) intestinal organoids", "test": "Apc mutant intestinal organoid culture", "assay_type": "cell-based, mouse", "settings": "7 days", "excerpt": "Mouse intestinal Apc (VilCre^ER Apc^fl/fl) organoids were obtained from Owen J. Sansom's laboratory at the Beatson Institute for Cancer Research, Glasgow, UK. The culture protocol has been described previously (14). Briefly, Apc mutant organoids were suspended in Growth Factor Reduced Matrigel (catalog no. 356231; Corning) and cultured in Advanced DMEM/F12 (catalog no. 12634-028; Invitrogen) containing 1% B-27 supplement (50×), minus vitamin A (catalog no. 12587-010; Invitrogen) and 0.1% BSA. Organoids were seeded in 24-well plates at a density of 70-100 organoids/50 μL Matrigel in each well. […] One week later organoids were imaged using the Cytation 5 Cell Imaging Multi-Mode Reader (BioTek Instruments, Inc.)."}},
  "data": [
    {"smiles": "CNC(=O)c1ccccc1Sc1ccc2c(/C=C/c3ccccn3)n[nH]c2c1", "note": "[axitinib, N-Methyl-2-[[3-[(E)-2-pyridin-2-ylethenyl]-1H-indazol-6-yl]sulfanyl]benzamide]", "values": [
      {"measurement": "ubiquitination of β-catenin", "setting": "[1]", "result": "increased its ubiquitination"},
      {"measurement": "endogenous association of MED23 and β-catenin", "setting": "[2]", "result": "disrupted"},
      {"measurement": "colony growth", "setting": "[3]", "result": "strongly and dose-dependently inhibited"},
      {"measurement": "cells with unequal distribution of nuclear β-catenin (β-catenin ACD)", "setting": "[4]", "result": "~19", "unit": "%"},
      {"measurement": "growth of Apc-deleted murine organoids", "setting": "[5]", "result": "strongly inhibited"}
    ]}
  ]
}
